Test results as given in patent publication US20260092070A1, “INHIBITORS OF CANINE JANUS KINASE AND USES THEREOF” (ANIMOL DISCOVERY, INC., priority 2023, published 2026).
Read-outs that look alike come from different tables or passages of the source.

Experiments:
[1] = molecular target: Human JAK-2 (Homo sapiens, UniProt O60674); assay: JAK enzymatic assay (Eurofins KinaseProfiler/IC50Profiler, radiometric), JAK-2; assay type: biochemical; conditions: human JAK-2 enzyme, 9 concentrations; read-out: JAK2 affinity (IC50) category
Human JAK-2, sequence (O60674 whole entry): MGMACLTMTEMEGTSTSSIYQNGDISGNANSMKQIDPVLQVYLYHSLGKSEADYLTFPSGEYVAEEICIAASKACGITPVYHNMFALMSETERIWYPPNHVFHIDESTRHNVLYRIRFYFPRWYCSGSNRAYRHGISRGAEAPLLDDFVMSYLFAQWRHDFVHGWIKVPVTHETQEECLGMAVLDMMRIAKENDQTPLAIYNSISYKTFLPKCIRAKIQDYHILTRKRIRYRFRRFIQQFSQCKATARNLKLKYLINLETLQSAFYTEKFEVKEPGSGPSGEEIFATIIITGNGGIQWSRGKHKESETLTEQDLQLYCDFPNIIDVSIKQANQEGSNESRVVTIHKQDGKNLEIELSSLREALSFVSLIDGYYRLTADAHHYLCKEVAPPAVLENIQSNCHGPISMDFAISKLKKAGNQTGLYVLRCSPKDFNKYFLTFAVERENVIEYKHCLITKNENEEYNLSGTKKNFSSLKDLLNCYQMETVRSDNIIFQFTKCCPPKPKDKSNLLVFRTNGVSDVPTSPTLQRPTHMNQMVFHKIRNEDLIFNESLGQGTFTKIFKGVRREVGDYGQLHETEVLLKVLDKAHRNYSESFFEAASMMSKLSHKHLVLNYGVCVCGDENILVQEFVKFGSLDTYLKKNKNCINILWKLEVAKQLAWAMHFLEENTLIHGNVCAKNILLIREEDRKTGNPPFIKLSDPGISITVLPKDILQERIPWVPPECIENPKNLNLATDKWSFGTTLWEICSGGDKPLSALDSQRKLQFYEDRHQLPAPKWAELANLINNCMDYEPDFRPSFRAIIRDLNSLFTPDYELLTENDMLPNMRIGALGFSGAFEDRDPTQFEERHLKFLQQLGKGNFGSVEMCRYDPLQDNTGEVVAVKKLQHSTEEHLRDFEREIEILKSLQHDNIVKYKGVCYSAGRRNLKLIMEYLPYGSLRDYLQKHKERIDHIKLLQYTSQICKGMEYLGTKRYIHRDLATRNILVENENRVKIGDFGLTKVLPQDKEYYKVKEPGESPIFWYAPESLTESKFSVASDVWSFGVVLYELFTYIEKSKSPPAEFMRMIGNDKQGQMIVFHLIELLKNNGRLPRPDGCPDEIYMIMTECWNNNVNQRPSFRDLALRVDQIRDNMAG
Experimental: (§1) All enzyme assays were conducted according to Eurofins Discovery's KinaseProfiler™ and IC50Profiler™ services.
(SEQ ID NO: 2) peptide substrate, 10 mM magnesium acetate and [gamma-33P]-ATP (specific activity and concentration as required). The reaction was initiated by the addition of the Mg/ATP mix. After incubation for 40 minutes at room temperature, the reaction was stopped by the addition of phosphoric acid to a concentration of 0.5%. An aliquot of the reaction was then spotted onto a filter and washed four times for 4 minutes in 0.425% phosphoric acid and once with methanol prior to drying and scintillation counting.
(§2) Data was then imported into an internal application where each data point was expressed as % inhibition based on uninhibited and no enzyme controls.

[2] = molecular target: T1, Human TYK-2 (Homo sapiens, UniProt P29597); assay: JAK enzymatic assay (Eurofins KinaseProfiler/IC50Profiler, radiometric), TYK-2; assay type: biochemical; conditions: human TYK-2 enzyme, 9 concentrations; read-out: TYK2 affinity (IC50) category
T1 construct: purchased Eurofins Discovery (KinaseProfiler / IC50Profiler service)
T1 sequence (P29597 whole entry): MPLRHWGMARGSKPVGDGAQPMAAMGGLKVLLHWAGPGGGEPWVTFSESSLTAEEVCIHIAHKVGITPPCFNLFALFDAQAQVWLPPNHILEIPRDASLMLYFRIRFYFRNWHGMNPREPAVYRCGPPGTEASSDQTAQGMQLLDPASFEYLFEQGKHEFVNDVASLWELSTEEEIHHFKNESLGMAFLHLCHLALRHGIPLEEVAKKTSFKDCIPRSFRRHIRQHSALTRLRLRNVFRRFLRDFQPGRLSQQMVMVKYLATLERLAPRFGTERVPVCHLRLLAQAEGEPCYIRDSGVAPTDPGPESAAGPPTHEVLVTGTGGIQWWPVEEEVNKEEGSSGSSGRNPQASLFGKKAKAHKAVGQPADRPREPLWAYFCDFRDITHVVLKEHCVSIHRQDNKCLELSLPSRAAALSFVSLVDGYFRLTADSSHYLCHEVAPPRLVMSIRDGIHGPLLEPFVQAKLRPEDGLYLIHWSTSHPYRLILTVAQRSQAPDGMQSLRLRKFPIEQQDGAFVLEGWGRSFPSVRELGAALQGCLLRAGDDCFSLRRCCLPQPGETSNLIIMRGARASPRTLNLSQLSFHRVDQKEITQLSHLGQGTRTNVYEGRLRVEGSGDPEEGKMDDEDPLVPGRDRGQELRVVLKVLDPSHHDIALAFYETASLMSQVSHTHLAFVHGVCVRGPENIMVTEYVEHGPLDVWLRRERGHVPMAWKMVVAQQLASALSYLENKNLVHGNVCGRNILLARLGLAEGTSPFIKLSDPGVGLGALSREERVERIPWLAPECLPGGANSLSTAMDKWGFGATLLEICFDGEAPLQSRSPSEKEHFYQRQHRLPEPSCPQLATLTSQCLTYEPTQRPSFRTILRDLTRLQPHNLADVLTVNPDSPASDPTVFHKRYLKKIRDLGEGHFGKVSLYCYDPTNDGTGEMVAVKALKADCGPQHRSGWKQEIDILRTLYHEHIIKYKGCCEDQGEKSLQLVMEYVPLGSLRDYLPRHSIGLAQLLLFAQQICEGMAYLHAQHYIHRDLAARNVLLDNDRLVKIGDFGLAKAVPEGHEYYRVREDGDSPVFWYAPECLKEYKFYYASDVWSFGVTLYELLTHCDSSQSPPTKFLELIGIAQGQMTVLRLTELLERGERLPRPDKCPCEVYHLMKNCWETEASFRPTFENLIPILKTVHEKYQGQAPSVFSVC
Experimental: Human TYK-2 (Uniprot ID: P29597) was incubated with 8 mM MOPS pH 7.0, 0.2 mM EDTA, 250 μM […]

[3] = molecular target: T2, JAK-1 (Homo sapiens, UniProt P23458); assay: JAK enzymatic assay (Eurofins KinaseProfiler/IC50Profiler, radiometric), JAK-1; conditions: for JAK1/JAK2 selectivity: selectivity IC50 ratio for JAK1 versus JAK2, human enzymes
Target sequence in this assay (P23458 whole entry): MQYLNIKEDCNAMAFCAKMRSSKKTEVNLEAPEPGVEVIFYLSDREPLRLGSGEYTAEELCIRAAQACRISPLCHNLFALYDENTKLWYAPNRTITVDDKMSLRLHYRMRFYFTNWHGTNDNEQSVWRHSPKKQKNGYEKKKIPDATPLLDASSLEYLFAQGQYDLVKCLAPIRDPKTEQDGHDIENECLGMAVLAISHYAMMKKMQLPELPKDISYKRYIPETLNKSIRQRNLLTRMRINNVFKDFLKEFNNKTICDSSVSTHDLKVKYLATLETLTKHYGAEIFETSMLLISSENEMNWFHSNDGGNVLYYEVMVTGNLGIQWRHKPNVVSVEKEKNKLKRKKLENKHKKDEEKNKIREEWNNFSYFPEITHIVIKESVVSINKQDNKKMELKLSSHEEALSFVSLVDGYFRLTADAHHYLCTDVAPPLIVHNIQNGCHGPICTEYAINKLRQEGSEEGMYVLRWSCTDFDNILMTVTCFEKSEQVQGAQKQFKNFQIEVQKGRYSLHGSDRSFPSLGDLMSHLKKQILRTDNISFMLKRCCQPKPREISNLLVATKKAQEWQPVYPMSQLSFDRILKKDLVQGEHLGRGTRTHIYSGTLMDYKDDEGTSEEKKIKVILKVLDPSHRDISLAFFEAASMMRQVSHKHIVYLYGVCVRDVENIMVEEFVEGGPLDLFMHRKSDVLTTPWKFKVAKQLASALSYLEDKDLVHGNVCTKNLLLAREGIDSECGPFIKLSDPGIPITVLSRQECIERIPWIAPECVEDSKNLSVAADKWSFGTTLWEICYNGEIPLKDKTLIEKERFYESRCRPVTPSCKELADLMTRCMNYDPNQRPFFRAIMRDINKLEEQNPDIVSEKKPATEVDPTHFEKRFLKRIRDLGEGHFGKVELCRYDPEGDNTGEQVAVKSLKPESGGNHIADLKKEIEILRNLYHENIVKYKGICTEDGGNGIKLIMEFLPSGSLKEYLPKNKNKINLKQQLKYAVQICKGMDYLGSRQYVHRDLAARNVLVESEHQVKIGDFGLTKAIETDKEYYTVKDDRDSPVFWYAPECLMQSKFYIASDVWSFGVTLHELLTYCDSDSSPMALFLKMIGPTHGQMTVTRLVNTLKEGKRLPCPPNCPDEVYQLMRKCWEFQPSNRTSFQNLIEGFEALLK
Experimental: as §1
(SEQ ID NO.: 1) peptide substrate, 10 mM magnesium acetate and [gamma-33P]-ATP (specific activity and concentration as required). The reaction was initiated by the addition of the Mg/ATP mix. After incubation for 40 minutes at room temperature, the reaction was stopped by the addition of phosphoric acid to a concentration of 0.5%. An aliquot of the reaction was then spotted onto a filter and washed four times for 4 minutes in 0.425% phosphoric acid and once with methanol prior to drying and scintillation counting. A known inhibitor, Staurosporine, was used as a positive control for the assay.
Data was then imported into an internal application where each data point was expressed as % inhibition based on uninhibited and no enzyme controls. […] Inhibition values for the JAK enzymes (IC50 values) for each compound were stratified into four groups.

[4] = molecular target: T3, Human JAK-3 (Homo sapiens, UniProt P52333); assay: JAK enzymatic assay (Eurofins KinaseProfiler/IC50Profiler, radiometric), JAK-3; assay type: biochemical; conditions: human JAK-3 enzyme, 9 concentrations; read-out: JAK3 affinity (IC50) category
T3 construct: purchased Eurofins Discovery (KinaseProfiler / IC50Profiler service)
T3 sequence (P52333 1-1124): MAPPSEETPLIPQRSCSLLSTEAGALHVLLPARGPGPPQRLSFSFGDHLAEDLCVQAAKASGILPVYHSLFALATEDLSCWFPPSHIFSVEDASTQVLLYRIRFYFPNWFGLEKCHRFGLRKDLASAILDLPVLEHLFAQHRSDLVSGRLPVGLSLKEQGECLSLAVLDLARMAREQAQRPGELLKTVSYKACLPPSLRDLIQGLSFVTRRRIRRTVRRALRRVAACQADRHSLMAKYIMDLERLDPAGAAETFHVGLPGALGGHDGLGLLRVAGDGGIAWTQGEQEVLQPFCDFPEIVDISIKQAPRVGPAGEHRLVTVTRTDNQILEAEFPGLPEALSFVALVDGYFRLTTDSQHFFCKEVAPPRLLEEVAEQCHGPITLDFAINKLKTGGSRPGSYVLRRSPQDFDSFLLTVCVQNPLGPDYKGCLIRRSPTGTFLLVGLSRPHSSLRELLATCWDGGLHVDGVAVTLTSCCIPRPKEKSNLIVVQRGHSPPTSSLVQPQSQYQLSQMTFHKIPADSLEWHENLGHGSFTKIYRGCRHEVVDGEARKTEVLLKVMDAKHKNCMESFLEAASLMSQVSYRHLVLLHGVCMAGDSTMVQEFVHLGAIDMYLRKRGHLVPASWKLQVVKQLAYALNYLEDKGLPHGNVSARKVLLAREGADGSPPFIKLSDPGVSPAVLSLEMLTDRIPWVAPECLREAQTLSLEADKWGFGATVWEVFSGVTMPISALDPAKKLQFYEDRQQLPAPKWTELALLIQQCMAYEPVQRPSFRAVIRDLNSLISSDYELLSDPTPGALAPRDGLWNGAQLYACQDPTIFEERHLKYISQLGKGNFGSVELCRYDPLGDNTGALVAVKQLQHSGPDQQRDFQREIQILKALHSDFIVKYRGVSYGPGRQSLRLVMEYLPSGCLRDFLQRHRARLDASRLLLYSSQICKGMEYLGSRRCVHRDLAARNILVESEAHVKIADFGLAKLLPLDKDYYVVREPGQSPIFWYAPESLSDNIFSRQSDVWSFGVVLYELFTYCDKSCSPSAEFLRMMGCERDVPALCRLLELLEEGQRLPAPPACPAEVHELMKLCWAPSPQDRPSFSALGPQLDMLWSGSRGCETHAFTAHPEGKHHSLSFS
Experimental: as §1
(SEQ ID NO: 3) peptide substrate, 10 mM magnesium acetate and [gamma-33P]-ATP (specific activity and concentration as required). The reaction was initiated by the addition of the Mg/ATP mix. After incubation for 40 minutes at room temperature, the reaction was stopped by the addition of phosphoric acid to a concentration of 0.5%. An aliquot of the reaction was then spotted onto a filter and washed four times for 4 minutes in 0.425% phosphoric acid and once with methanol prior to drying and scintillation counting.
as §2

[5] = tested on: cJAK-1; assay: Selectivity of oclacitinib among canine JAK subtypes; assay type: biochemical
[6] = molecular target: T2, JAK-1; conditions: Gonzales et al., 2014; cited from earlier work
Target sequence in this assay (P23458 whole entry, species assumed): as the sequence (P23458 whole entry) above

[7] = tested on: JAK1-dependent cytokines (IL-2, IL-4, IL-6, IL-13, IL-31); conditions: IL-2, IL-4, IL-6, IL-13 and IL-31; Gonzales et al., 2014; read-out: IC50 for inhibiting the function of JAK1-dependent cytokines; cited from earlier work

Compound | IC50 [1] [nM] | IC50 [2] [nM] | IC50 [3] [nM] | IC50 [4] [nM] | JAK1/JAK2 selectivity [3] | selectivity toward cJAK-2, cJAK-3, and cJAK-4 relative to cJAK-1 [5] | IC50 [6] [nM] | IC50 [7] [nM]
COc1cc(NC(=O)CN2CCN(c3ncnc4[nH]ccc34)CC2)ccc1S(=O)(=O)N(C)C [Compound 1, 2-(4-(7H-pyrrolo[2,3-d]pyrimidin-4-yl)piperazin-1-yl)-N-(4-(N, N-dimethylsulfamoyl)-3-methoxyphenyl) acetamide] | > 1000 | > 1000 | 500 to 1000 | > 1000 |  |  |  | 
CC(C)(C)NS(=O)(=O)c1ccc(NC(=O)CN2CCN(c3ncnc4[nH]ccc34)CC2)cc1 [Compound 2, 2-(4-(7H-pyrrolo[2,3-d]pyrimidin-4-yl)piperazin-1-yl)-N-(4-(N-(tert-butyl)sulfamoyl)phenyl)acetamide] | > 1000 | > 1000 | < 250 | > 1000 | 25 |  |  | 
O=C(CN1CCN(c2ncnc3[nH]ccc23)CC1)Nc1ccc(S(=O)(=O)N2CCC2)cc1 [Compound 4, 2-(4-(7H-pyrrolo[2,3-d]pyrimidin-4-yl)piperazin-1-yl)-N-(4-(azetidin-1-ylsulfonyl)phenyl) acetamide] | > 1000 | > 1000 | 250 to 500 | > 1000 | 24 |  |  | 
O=C(CN1CCN(c2ncnc3[nH]ccc23)CC1)Nc1ccc(S(=O)(=O)NC2CC2)cc1 [Compound 7, 2-(4-(7H-pyrrolo[2,3-d]pyrimidin-4-yl)piperazin-1-yl)-N-(4-(N-cyclopropylsulfamoyl)phenyl)acetamide] | 500 to 1000 | > 1000 | < 250 | > 1000 | 13 |  |  | 
CNS(=O)(=O)c1ccc(NC(=O)CN2CCN(c3ncnc4[nH]ccc34)CC2)cc1 [Compound 8, 2-(4-(7H-pyrrolo[2,3-d]pyrimidin-4-yl)piperazin-1-yl)-N-(4-(N-methylsulfamoyl)phenyl)acetamide] | 500 to 1000 | > 1000 | < 250 | 500 to 1000 | 7 |  |  | 
CNS(=O)(=O)c1ccc(NC(=O)CN2CCN(c3ncnc4[nH]ccc34)CC2)cc1F [Compound 9, 2-(4-(7H-pyrrolo[2,3-d]pyrimidin-4-yl)piperazin-1-yl)-N-(3-fluoro-4-(N-methylsulfamoyl)phenyl)acetamide] | 500 to 1000 | 500 to 1000 | < 250 | 500 to 1000 | 12 |  |  | 
CNS(=O)(=O)c1ccc(N(C)C(=O)CN2CCN(c3ncnc4[nH]ccc34)CC2)cc1 [Compound 14, 2-(4-(7H-pyrrolo[2,3-d]pyrimidin-4-yl)piperazin-1-yl)-N-methyl-N-(4-(N-methylsulfamoyl)phenyl)acetamide] | > 1000 | > 1000 | 250 to 500 | > 1000 | 17 |  |  | 
CC(C)NS(=O)(=O)c1ccc(NC(=O)C(C)N2CCN(c3ncnc4[nH]ccc34)CC2)cc1 (centres unmarked) [Compound 17, 2-(4-(7H-pyrrolo[2,3-d]pyrimidin-4-yl)piperazin-1-yl)-N-(4-(N-isopropylsulfamoyl)phenyl)propenamide] | > 1000 | > 1000 | 250 to 500 | > 1000 | 7 |  |  | 
CC(C(=O)Nc1ccc(S(=O)(=O)N2CCCCC2)cc1)N1CCN(c2ncnc3[nH]ccc23)CC1 (centres unmarked) [Compound 20, 2-(4-(7H-pyrrolo[2,3-d]pyrimidin-4-yl)piperazin-1-yl)-N-(4-(piperidin-1-ylsulfonyl)phenyl)propenamide] | > 1000 | 500 to 1000 | 500 to 1000 | > 1000 | 2 |  |  | 
CNS(=O)(=O)C[C@H]1CC[C@H](N(C)c2ncnc3[nH]ccc23)CC1.O=C(O)/C=C\C(=O)O [Oclacitinib, N-methyl[trans-4-(methyl-7H-pyrrolo[2,3-d]pyrimidin-4-ylamino)cyclohexyl]methanesulfonamide (2Z)-2-butenedioate] |  |  |  |  |  | relatively low | 10 | 36 to 249

Now from value to molecule, other results behind:

IC50 [1] [nM] | IC50 [2] [nM] | IC50 [3] [nM] | IC50 [4] [nM] | Compound | JAK1/JAK2 selectivity [3] | selectivity toward cJAK-2, cJAK-3, and cJAK-4 relative to cJAK-1 [5] | IC50 [6] [nM] | IC50 [7] [nM]
> 1000 | > 1000 | 250 to 500 | > 1000 | CN(C)S(=O)(=O)c1ccc(NC(=O)CN2CCN(c3ncnc4[nH]ccc34)CC2)cc1F [Compound 5, 2-(4-(7H-pyrrolo[2,3-d]pyrimidin-4-yl)piperazin-1-yl)-N-(4-(N,N-dimethylsulfamoyl)-3-fluorophenyl)acetamide] |  |  |  | 
> 1000 | > 1000 |  | > 1000 | CN(C)S(=O)(=O)c1ccc(NC(=O)CN2CCN(c3ncnc4[nH]ccc34)CC2)cc1Cl [Compound 6, 2-(4-(7H-pyrrolo[2,3-d]pyrimidin-4-yl)piperazin-1-yl)-N-(3-chloro-4-(N,N-dimethylsulfamoyl)phenyl)acetamide] |  |  |  | 
> 1000 | > 1000 | 250 to 500 | > 1000 | COCCN(C)S(=O)(=O)c1ccc(NC(=O)CN2CCN(c3ncnc4[nH]ccc34)CC2)cc1 [Compound 10, 2-(4-(7H-pyrrolo[2,3-d]pyrimidin-4-yl)piperazin-1-yl)-N-(4-(N-(2-methoxyethyl)-N-methylsulfamoyl)phenyl)acetamide] | 15 |  |  | 
> 1000 | > 1000 | < 250 | 500 to 1000 | CCCCNS(=O)(=O)c1ccc(NC(=O)CN2CCN(c3ncnc4[nH]ccc34)CC2)cc1 [Compound 11, 2-(4-(7H-pyrrolo[2,3-d]pyrimidin-4-yl)piperazin-1-yl)-N-(4-(N-butylsulfamoyl)phenyl)acetamide] | 9 |  |  | 
500 to 1000 | > 1000 | < 250 | 500 to 1000 | CCCNS(=O)(=O)c1ccc(NC(=O)CN2CCN(c3ncnc4[nH]ccc34)CC2)cc1 [Compound 12, 2-(4-(7H-pyrrolo[2,3-d]pyrimidin-4-yl)piperazin-1-yl)-N-(4-(N-propylsulfamoyl)phenyl)acetamide] | 4 |  |  | 
> 1000 | > 1000 | < 250 | > 1000 | CCNS(=O)(=O)c1ccc(NC(=O)CN2CCN(c3ncnc4[nH]ccc34)CC2)cc1 [Compound 13, 2-(4-(7H-pyrrolo[2,3-d]pyrimidin-4-yl)piperazin-1-yl)-N-(4-(N-ethylsulfamoyl)phenyl)acetamide] | 13 |  |  | 
< 250 | > 1000 | 250 to 500 | 500 to 1000 | CC(C)NS(=O)(=O)c1ccc(NC(=O)[C@@H](C)N2CCN(c3ncnc4[nH]ccc34)CC2)cc1 [Compound 18, (R)-2-(4-(7H-pyrrolo[2,3-d]pyrimidin-4-yl)piperazin-1-yl)-N-(4-(N-isopropylsulfamoyl)phenyl)propanamide] | 4 |  |  | 
> 1000 |  | < 250 | > 1000 | CC(C)NS(=O)(=O)c1ccc(NC(=O)[C@H](C)N2CCN(c3ncnc4[nH]ccc34)CC2)cc1 [Compound 19, (S)-2-(4-(7H-pyrrolo[2,3-d]pyrimidin-4-yl)piperazin-1-yl)-N-(4-(N-isopropylsulfamoyl)phenyl)propenamide] | 8 |  |  | 
